# Source: PubChem BioAssay AID1645871
# Conditions: pampa; pH 5.0; 30.0 min; 50.0 µM
row,Structure (SMILES),Papp [×10⁻⁶ cm/s]
1,COc1cc(C2c3c(oc4cc(C)c(C)cc4c3=O)C(=O)N2CCCN2CCOCC2)ccc1O (configuration not stated),25.3
2,CCCCOc1ccc(C2c3c(oc4ccc(C)cc4c3=O)C(=O)N2CCCN(C)C)cc1OCC (configuration not stated),273
3,Cc1ccc(Nc2nc(C)c(NC(=O)c3ccc(C)cc3)c(Nc3ccc(C)cc3)n2)cc1,6.76
4,O=C(Cc1cccs1)NCc1nnc2ccc(-c3ccccc3)nn12,55.9
5,COc1ccc(Cn2c(C(=O)O)c(CNCc3ccco3)c3ccc(C)cc32)cc1,618
6,NCC(=O)Nc1cncc(-c2nn3c(=O)cc(N4CCNCC4)nc3s2)c1,1.07
7,CCCNC(=O)c1ccc2c(c1)N=C(C)c1c(C)ccc(C)c1S2,> 1000
8,COc1ccc(-n2nc(C3CCCN(CC4CCCCC4)C3)[nH]c2=O)cc1 (configuration not stated),322
9,O=C(NCC1CCN(Cc2cccc(Cl)c2)CC1)Nc1ccc(F)c(Cl)c1,638
10,CN1CCN(Cc2ccc(NC(=O)Cc3ccc(Oc4cc(NC(=O)C5CC5)ncn4)cc3)cc2C(F)(F)F)CC1,19.3
11,CCCCCn1c(CCCNC(=O)c2ccccc2OC)nc2ccccc21,491
12,COc1ccc(-n2nc(C3CCN(C(=O)c4ccccc4)CC3)[nH]c2=O)cc1,250
13,c1ccc(CNc2cc3c(cn2)CN(Cc2cccnc2)CCN3)cc1,15.8
14,CCN(C(=O)C(NS(=O)(=O)c1ccc(Br)s1)c1ccccc1)c1ccc(C)c(C)c1 (configuration not stated),110
15,COc1cc2cc(CN3CCC(N(C)C)C3)c(-c3cccc(Cl)c3)nc2cc1OC (configuration not stated),243
16,Cc1ccc(-c2ccc(CNc3nc(-c4ccccc4C(C)C)nc4ccccc34)cc2)cn1,857
17,CCC(Sc1nc2ccccc2c2nc(CCc3c(C)n[nH]c3C)nn12)C(=O)Nc1ccc(F)cc1 (configuration not stated),205
18,CC(C(O)c1ccc(O)cc1)N1CCC(Cc2ccccc2)CC1 (configuration not stated),40.6
19,COC(=O)Nc1nc2ccc(C(=O)c3ccccc3)cc2[nH]1,455
20,COc1ccc(-c2c(-c3cc(C(=O)O)ccn3)ncn2C)cc1,2.67
21,CN(C(=O)CSc1nc2ccc(NC(=O)c3ccc(F)cc3)cc2s1)c1ccccc1,901
22,CCOC(=O)c1ccc(NC(=O)CSc2nc3c(cc2C#N)N2CCC3CC2)cc1,236
23,O=C(Nc1cccc(F)c1)c1cc(-c2ccc[nH]2)n[nH]1,75.6
24,COc1ccc(C(=O)N[C@@H]2CCC[C@@H]2C(=O)N2CCC(Cc3ccccc3)CC2)cc1,> 1000
25,COc1cc(C(=O)N2CCN(c3cc(Cl)ccc3Cl)CC2)cc(OC)c1OC,> 1000
26,Cc1ccc(-c2nc(C)c(C(=O)Nc3ccc4c(c3)C(=O)N3CCC[C@H]3C(=O)N4)s2)cc1,48.2

row,Structure (SMILES),Papp [×10⁻⁶ cm/s]
1,O=C(Nc1ccc(Cl)cc1)C(NS(=O)(=O)c1cccs1)c1ccccc1 (configuration not stated),443
2,COc1cc([C@@H](CC(=O)O)c2ccc(C)c(CN3C[C@@H](C)Oc4ccccc4S3(=O)=O)c2)cc2nnn(C)c12,898
3,Cc1ccnc(NC(=S)N2CCN(c3ccc(N)cc3)CC2)c1,4.13
4,O=C(O)C1CCN(c2ncc(-c3ccc4c(c3)OCCCO4)s2)CC1,> 1000
5,O=S(=O)(Nc1ccc(-c2cccnc2)c2cccnc12)c1cccc(C(F)(F)F)c1,> 1000
6,CN1CCN(c2ccc(Nc3c4ccccc4nc4ccccc34)cc2)CC1,3.75
7,COc1ccc(CN2CCc3c(c(=O)n4ncc(C(=O)N5CCN(c6ccccc6OC)CC5)c4n3C)C2)cc1,324
8,COc1ccc2[nH]c3c(c2c1)CCNC31CCN(S(=O)(=O)c2c(C)noc2C)CC1,161
9,CNc1oc(-c2cccc3ccccc23)nc1C#N,645
10,O=C(NCCc1ccccn1)C1CC(=O)N(c2n[nH]c3cc(Br)ccc23)C1 (configuration not stated),11.5
11,O=C(Nc1ccc(F)cc1F)c1cc(-c2ccc[nH]2)n[nH]1,166
12,COc1ccc(NC(=O)CCCc2nnc3n(CCC(C)C)c(=O)c4sccc4n23)cc1Cl,> 1000
13,COc1ccc(CN2CCNc3cc(Nc4ccccc4)ncc3C2)cc1,119
14,COc1ccc(CN2CCNc3cc(Nc4ccccc4)ncc3C2)cc1O,3.07
15,COc1ccc(N(C)C(=O)c2cc3c(s2)-c2ccccc2OC3)cc1,963
16,CCOC(=O)c1ccc(N2C(=O)c3n[nH]c(-c4cccs4)c3C2c2ccc(Cl)cc2Cl)cc1 (configuration not stated),316
17,Cc1cccc(-c2cc(NC(=O)c3ccccc3C)n(-c3ccccc3)n2)c1,786
18,CC(C)CNc1ccnc(NCc2csc(-c3ccccc3)n2)n1,> 1000
19,COc1ccc(-c2nc3sc(CCNC(=O)C(C)(C)C)c(C)n3n2)cc1,657
20,COc1ccc(-c2ccc3ncc(Nc4ccc(C(N)=O)cc4)n3n2)cc1OC,81.8
21,CC1CCN(S(=O)(=O)c2ccc3c(ccc(=O)n3CC(=O)NCc3ccc(Cl)cc3)c2)CC1,828
22,O=C(CCCCn1c(=O)[nH]c2ccsc2c1=O)N1CCN(c2cccc(Cl)c2)CC1,719
23,COc1ccc(-c2[nH]nc3ncc(-c4ccc(CO)cc4)nc23)cc1F,428
24,c1cc(-c2cc(-c3ccncc3)c3cncn3c2)c2[nH]ncc2c1,20.3
25,COc1ccc(C)cc1NS(=O)(=O)c1ccc(-c2cnc(C3CC3)o2)cc1,883
26,Cc1cc(-c2ccc(C)c(S(=O)(=O)NCC3CCN(Cc4ccc(F)cc4)CC3)c2)on1,486

row,Structure (SMILES),Papp [×10⁻⁶ cm/s]
1,CCOc1ccc(C2c3c(oc4ccc(C)cc4c3=O)C(=O)N2CCCN(C)C)cc1 (configuration not stated),29.6
2,COC(=O)[C@@H]1C[C@H](OC(C)=O)C(=O)[C@H]2[C@@]1(C)CC[C@H]1C(=O)O[C@H](c3ccoc3)C[C@]21C,381
3,O=c1[nH]c(N2CCOCC2)nc2c1CCN(Cc1ccc(Cl)cc1F)CC2,71.2
4,C[C@H]1CCC[C@H](O)CCC/C=C/c2cc(O)cc(O)c2C(=O)O1,795
5,C[C@@H](O)CNC(C)(C)CC(=O)N[C@@H]1CCc2ccccc2N(Cc2ccc(-c3ccccc3-c3nn[nH]n3)cc2)C1=O,5.85
6,COc1cccc2c1CCCC2CCCN1CCN(C2CCCCC2)CC1 (configuration not stated),777
7,COc1ccc(-n2nc(C3CCCN(C(=O)c4cccc(OC)c4)C3)[nH]c2=O)cc1 (configuration not stated),431
8,COc1ccc(-n2nc(C3CCN(C(=O)Cc4ccc(F)cc4)CC3)[nH]c2=O)cc1,410
9,O=C(NCc1ccccc1)c1nc(S(=O)(=O)Cc2ccc(F)cc2)ncc1Cl,296
10,COc1cc(C(=O)NC2CCCc3c2[nH]c2c(Cl)cccc32)cc(OC)c1OC (configuration not stated),384
11,CCCc1oc2ccc(NS(=O)(=O)c3ccc(OC)cc3)cc2c1C(=O)OCC,1.84
12,CCOC(=O)NNc1ccc(N(CC)CC(C)O)nn1 (configuration not stated),8.57
13,Cc1ccc(-n2c(=O)c3oc4ccccc4c3n(CC(=O)Nc3ccc(F)c(Cl)c3)c2=O)cc1C,583
14,C[C@]1(CO)CN(c2cc(C(=O)Nc3ccc4c(c3)-c3c(c(C(N)=O)nn3-c3ccc(F)cc3)CC4)c(Cl)cn2)C[C@@]1(C)CO,45.6
15,Cc1ccccc1S(=O)(=O)N1CCCC(CCC(=O)NCCN(C)C2CCCCC2)C1 (configuration not stated),32.8
16,CCOc1ccc(CCNC(=O)c2cccc(C(=O)c3ccccc3)c2)cc1OCC,> 1000
17,O=C(NCCCO)c1ccc(-c2ncc3cnc(-c4cccc(F)c4)cn23)cc1,21.2
18,Cc1ccc(S(=O)(=O)N2CCN(C(=O)c3cc4c(s3)CCC4)CC2)cc1,> 1000
19,c1cn2cc(-c3ccc4cn[nH]c4c3)nc(Nc3ccc(N4CCOCC4)cc3)c2n1,> 1000
20,COCCNC(=O)[C@H]1C[C@H](Oc2ccccc2)CN1Cc1ccc2[nH]ccc2c1,186
21,CCOc1ccc(CCNC(=O)c2cc3ccccc3n2C)cc1OCC,> 1000
22,CC1=C[C@@H](CNCc2cccnc2)[C@H](C(C)C)C[C@H]1Cc1nnc(-c2ccc([N+](=O)[O-])cc2)o1,984
23,Cc1ccc(-n2ncc3c(NCCCn4ccnc4)ncnc32)cc1Cl,559
24,Cc1nn2c(c1-c1ccccc1-c1ccccc1)N(CC1CC1)CCC2,> 1000
25,COc1cccc(-n2nc(C(=O)O)cc2-c2ccc(C3CCCCC3)c(Cl)c2)c1,401
26,COc1cccc(Nc2ncc(-c3cccc(N(C)C)c3)c3c2OCC3)c1,> 1000

row,Structure (SMILES),Papp [×10⁻⁶ cm/s]
1,COc1ccc(CCNc2ncnc3onc(C)c23)c(OC)c1,540
2,CC[C@H](C)[C@@H]([C@@H](CC(=O)N1CCC[C@H]1[C@H](OC)[C@@H](C)C(=O)N[C@@H](Cc1ccccc1)c1nccs1)OC)N(C)C(=O)[C@@H](NC(=O)[C@H](C(C)C)N(C)C)C(C)C,224
3,O=C(Nc1ccc2c(N3CCOCC3)ncnc2c1)c1cccc(Br)c1,654
4,CN(C)CCCn1cc(C2=C(c3c[nH]c4ccccc34)C(=O)NC2=O)c2ccccc21,39.3
5,NC1(c2ccccc2Cl)CCCCC1=O (configuration not stated),11.1
6,Cn1cnc2c(F)c(Nc3ccc(Br)cc3Cl)c(C(=O)NOCCO)cc21,151
7,Cc1cccc(S(=O)(=O)c2cn(Cc3ccccc3)c3cc(N4CCCCC4C)c(F)cc3c2=O)c1 (configuration not stated),485
8,Cc1ccccc1C(=O)Nc1ccc2c(c1)CCCN2C(=O)c1cccs1,561
9,COc1ncc(-c2ccc3c(Nc4cc(Oc5cc(F)cc(F)c5)cc(C(=O)O)c4)c(S(=O)(=O)NC4CC4)cnc3c2)c(OC)n1,1.2
10,CCOc1ccc(Nc2nc(C)c(NC(=O)c3ccc(C)cc3)c(Nc3ccc(OCC)cc3)n2)cc1,59
11,COc1cccc(C(=O)Nc2nc(-c3nnn(-c4ccccc4C(F)(F)F)c3C)ns2)c1,834
12,O=C(Nc1ccc2c(N3CCCCC3)ncnc2c1)c1cc(F)cc(F)c1,817
13,COc1cccc(CNCc2cccn2-c2nnc(N3CCN(c4ccccc4)CC3)s2)c1,924
14,N#Cc1cccc(NC(=O)c2sc3nc4c(cc3c2N)N2CCC4CC2)c1,285
15,CCOc1cc(CNc2ccc(O)cc2)ccc1OCc1ccc(Cl)cc1,187
16,O=C(NC1CCCN(c2cc(-c3ccc(F)cc3)[nH]n2)C1)c1ccc2ncccc2c1 (configuration not stated),> 1000
17,CC(=O)Nc1ccc(C(=O)Nc2ccc3c(c2)N(C2CCCC2)C(=O)c2ccccc2S3)cc1,511
18,COc1ccc(OC)c(Nc2c3c(nc4ccccc24)CCC3)c1,129
19,COc1ccccc1-c1nc(NCc2ccc(-c3cccnc3)cc2)c2ccccc2n1,727
20,Cc1ccccc1-c1nc(NCc2ccc(-c3cccnc3)cc2)c2ccccc2n1,> 1000
21,Cc1ccc(NC(=O)c2c(N3CCCC3=O)c3cc(C)ccc3n2C)c(C)c1,> 1000
22,O=C(CCCN1CCC(O)(c2ccc(Cl)cc2)CC1)c1ccc(F)cc1,396
23,CC(=O)Nc1ccc(CN2CCc3nc(C(C)C)nc(-c4ccc(Cl)cc4)c3CC2)cc1,476
24,O=C1Nc2cc(Cl)ccc2Nc2cscc21,63.3
